A short description of this data set: activity coefficient (dimensionless); of the first substance listed, at infinite dilution; xn = mol fraction of the nth substance listed. The conditions noted are these: 101.33 kPa, Liquid, Chromatography, x1 = 0.

Molecules are shown by their SMILES. ± gives the expanded uncertainty stated by the source.

For `CCCCCCCCCC` [decane] + CCCC[P+](CCCC)(CCCC)CCCC.O=S(=O)([N-]S(=O)(=O)C(F)(F)F)C(F)(F)F, the activity coefficient worked out at 10.4 ± 0.7 (358.15 K); 10.1 ± 0.7 (368.15 K); 9.88 ± 0.67 (378.15 K); 9.67 ± 0.66 (388.15 K); 9.47 ± 0.65 (398.15 K); 9.29 ± 0.63 (408.15 K).
For `COC(C)(C)C` [2-methoxy-2-methylpropane] + CCCC[P+](CCCC)(CCCC)CCCC.O=S(=O)([N-]S(=O)(=O)C(F)(F)F)C(F)(F)F, the activity coefficient reads like this: (358.15 K) 1.66 ± 0.11; (368.15 K) 1.73 ± 0.12; (378.15 K) 1.8 ± 0.12; (388.15 K) 1.87 ± 0.13; (398.15 K) 1.94 ± 0.13; (408.15 K) 2.01 ± 0.14.
Regarding `CCCCC` [pentane] + CCCC[P+](CCCC)(CCCC)CCCC.O=S(=O)([N-]S(=O)(=O)C(F)(F)F)C(F)(F)F, the activity coefficient is 3.61 ± 0.25 (358.15 K); 3.62 ± 0.25 (368.15 K); 3.65 ± 0.25 (378.15 K); 3.66 ± 0.25 (388.15 K); 3.68 ± 0.25 (398.15 K); 3.7 ± 0.25 (408.15 K).
Take `C1CCCCCCC1` [cyclooctane] + CCCC[P+](CCCC)(CCCC)CCCC.O=S(=O)([N-]S(=O)(=O)C(F)(F)F)C(F)(F)F: the activity coefficient runs as follows: (358.15 K) 4.08 ± 0.28; (368.15 K) 4.04 ± 0.28; (378.15 K) 4 ± 0.27; (388.15 K) 3.97 ± 0.27; (398.15 K) 3.94 ± 0.27; (408.15 K) 3.91 ± 0.27.
As for `C#CCCCCC` [1-heptyne] + CCCC[P+](CCCC)(CCCC)CCCC.O=S(=O)([N-]S(=O)(=O)C(F)(F)F)C(F)(F)F, the activity coefficient runs as follows: (358.15 K) 2.28 ± 0.16; (368.15 K) 2.35 ± 0.16; (378.15 K) 2.42 ± 0.16; (388.15 K) 2.48 ± 0.17; (398.15 K) 2.55 ± 0.17; (408.15 K) 2.62 ± 0.18.
With `CCO` [ethanol] + CCCC[P+](CCCC)(CCCC)CCCC.O=S(=O)([N-]S(=O)(=O)C(F)(F)F)C(F)(F)F, the activity coefficient by setting is: (358.15 K) 1.42 ± 0.09; (368.15 K) 1.36 ± 0.09; (378.15 K) 1.31 ± 0.09; (388.15 K) 1.26 ± 0.08; (398.15 K) 1.22 ± 0.08; (408.15 K) 1.18 ± 0.08.
Take `C=CCCC` [1-pentene] + CCCC[P+](CCCC)(CCCC)CCCC.O=S(=O)([N-]S(=O)(=O)C(F)(F)F)C(F)(F)F: the activity coefficient turned out to be 2.61 ± 0.18 (358.15 K); 2.66 ± 0.18 (368.15 K); 2.7 ± 0.18 (378.15 K); 2.74 ± 0.19 (388.15 K); 2.78 ± 0.19 (398.15 K); 2.82 ± 0.19 (408.15 K).
For the compound `C1CCOC1` [tetrahydrofuran] + CCCC[P+](CCCC)(CCCC)CCCC.O=S(=O)([N-]S(=O)(=O)C(F)(F)F)C(F)(F)F, the activity coefficient is, setting by setting: (358.15 K) 0.622 ± 0.043; (368.15 K) 0.653 ± 0.045; (378.15 K) 0.682 ± 0.046; (388.15 K) 0.712 ± 0.047; (398.15 K) 0.742 ± 0.049; (408.15 K) 0.772 ± 0.05.
For the compound `C=CCCCCCC` [oct-1-ene] + CCCC[P+](CCCC)(CCCC)CCCC.O=S(=O)([N-]S(=O)(=O)C(F)(F)F)C(F)(F)F, the activity coefficient reads like this: (358.15 K) 4.9 ± 0.33; (368.15 K) 4.92 ± 0.34; (378.15 K) 4.94 ± 0.34; (388.15 K) 4.96 ± 0.34; (398.15 K) 4.98 ± 0.34; (408.15 K) 5.01 ± 0.34.
`CC(C)c1ccccc1` [isopropylbenzene] + CCCC[P+](CCCC)(CCCC)CCCC.O=S(=O)([N-]S(=O)(=O)C(F)(F)F)C(F)(F)F: the activity coefficient by setting is: (358.15 K) 1.92 ± 0.13; (368.15 K) 1.97 ± 0.13; (378.15 K) 2.02 ± 0.14; (388.15 K) 2.07 ± 0.14; (398.15 K) 2.12 ± 0.14; (408.15 K) 2.17 ± 0.15.

(Values after the NIST ThermoML archive (doi:10.1016/j.fluid.2018.07.028).)
